# Reference: patent publication US20250262279A1, “DOSE REGIMEN FOR LONG-ACTING GLP1/GLUCAGON RECEPTOR AGONISTS” (Boehringer Ingelheim International GmbH, priority 2021, published 2025)
# Assay: Example 3: safety (AEs, laboratory, ECG, vital signs, NASH scores)
# Type: in vivo, human
# Protocol: • Semaglutide • Dose: 0.25, 0.25, 0.25, 0.25, 0.5, 0.5, 0.5, 0.5, 1.0 mg (weeks 9−16) once weekly • Mode of administration: Solution for injection
# Safety endpoints included Columbia-Suicide Severity Rating Scale (C-SSRS) and various electrocardiograms (ECG) assessments. Safety was assessed based on adverse events (AEs), adverse event of special interest (AESIs), clinical laboratory assessments, vital signs, and physical examination. AESIs were pre-specified in the protocol as pancreatitis and hepatic injury.
# Analyses of safety were descriptive.
compound,measurement,setting,value
"CC[C@H](C)[C@H](NC(=O)[C@H](Cc1ccccc1)NC(=O)[C@H](CCC(=O)O)NC(=O)[C@H](CCCCNC(=O)COCCOCCNC(=O)COCCOCCNC(=O)CC[C@H](NC(=O)CCCCCCCCCCCCCCCCC(=O)O)C(=O)O)NC(=O)[C@H](C)NC(=O)[C@H](C)NC(=O)[C@H](CCC(N)=O)NC(=O)CNC(=O)[C@H](CCC(=O)O)NC(=O)[C@H](CC(C)C)NC(=O)[C@H](Cc1ccc(O)cc1)NC(=O)[C@H](CO)NC(=O)[C@H](CO)NC(=O)[C@@H](NC(=O)[C@H](CC(=O)O)NC(=O)[C@H](CO)NC(=O)[C@@H](NC(=O)[C@H](Cc1ccccc1)NC(=O)[C@@H](NC(=O)CNC(=O)[C@H](CCC(=O)O)NC(=O)C(C)(C)NC(=O)[C@@H](N)Cc1cnc[nH]1)[C@@H](C)O)[C@@H](C)O)C(C)C)C(=O)N[C@@H](C)C(=O)N[C@@H](Cc1c[nH]c2ccccc12)C(=O)N[C@@H](CC(C)C)C(=O)N[C@H](C(=O)N[C@@H](CCCNC(=N)N)C(=O)NCC(=O)N[C@@H](CCCNC(=N)N)C(=O)NCC(=O)O)C(C)C [semaglutide, reference compound]",deaths,"Ex.3, whole trial",no deaths
same,"AEs leading to discontinuation of trial medication, number of patients",in vivo,2 N
same,"AEs leading to discontinuation of trial medication, percentage of patients",in vivo,(4.0) %
same,"AEs of special interest, number of patients",in vivo,0 N
same,"Any AE, number of patients",in vivo,26 N
same,"Any AE, percentage of patients",in vivo,(52.0) %
same,"Investigator defined drug-related AEs, number of patients",in vivo,19 N
same,"Investigator defined drug-related AEs, percentage of patients",in vivo,(38.0) %
same,"Serious AEs, number of patients",in vivo,0 N
same,"Severe AEs, number of patients",in vivo,0 N
same,cases of pancreatitis,in vivo,no cases of pancreatitis
same,patients with SAEs,in vivo,0 patients
same,patients with SAEs assessed as drug-related by the investigator,in vivo,0 patients
same,proportion of patients with PCSA high glucose on treatment,in vivo,5.0%
same,severe AEs and serious AEs,in vivo,no severe AEs or serious AEs
